Measured values from patent US20100021938A1, “Diagnosis and Prediction of Alzheimer's Disease” (priority 2008, published 2010).

What was measured:
3xTg-AD mice = details: cited from earlier work
human platelets = experiment: sAPPα release by human platelets, Western blot of supernatant (antibody 6E10); assay type: cell-based; details: for sAPPα release by washed platelets: collagen up to 5 μg/ml, ADP up to 25 μM
Protocol: FIG. 2: sAPPα release is mediated through G protein-coupled receptors. Human platelets (600,000 cells/μl) were incubated with 20 μM arachidonic acid (AA), U46,619 (500 nM), PAR1-AP (100 μM), PAR4-AP (200 μM) or thrombin (1 U/ml) for 1 h. The cells were then pelleted at 10,000×g for 15 min and the levels of sAPPα in the supernatant were determined by Western blot analysis using the antibody 6E10 (Calbiochem).
FIG. 3: The effect of arachidonic acid is mediated by the TP receptor. Left panel: Human platelets were incubated by increasing concentrations of U46,619 and sAPPa was analyzed in the supernatant as described for FIG. 2. Right panel: Human platelets were pre-incubated for 15 min with increasing concentration of an antagonist of the TP receptor, SQ29,548, prior addition of 7.5 μM of arachidonic acid. sAPPα release was analyzed by western blot.
FIG. 4: Activation of PGI2 receptor inhibits sAPPa release triggered by U46,619. Human platelets were pre-incubated for 30 min with increasing concentrations of carbaprostacylin prior addition of 500 nM of U46,619. After 1 h the levels of sAPPa in the supernatant were determined by western blot analysis. Protein bands were scanned and the pixels integrated. sAPPa release is expressed as a percent of maximum where no CP was added.
FIG. 5: PGE2 potentiates the effect of a sub-efficacious concentration of arachidonic acid. Washed platelets were pre-incubated for 2 min with increasing concentrations of PGE2 or vehicle prior addition of 0.5 μM of arachidonic acid. After 1 h, sAPPα release in the supernatant was determined by Western blot analysis as described in FIG. 2. Protein bands were scanned and the pixels integrated. sAPPα release is expressed as a percent of the maximum obtained with 7.5 nM PGE2 and 0.5 μM arachidonic acid.
Secretion of sAPPα has been analyzed in human platelets in response to various agonists.

[1] = biological target: T1, M1 muscarinic receptor (M1mAChR) (Homo sapiens, UniProt P11229); details: patients with AD (Nitsch et al., 2000); cited from earlier work
T1 construct: host or cells: patients with AD (endogenous receptor, in vivo)
T1 sequence (P11229 1-460): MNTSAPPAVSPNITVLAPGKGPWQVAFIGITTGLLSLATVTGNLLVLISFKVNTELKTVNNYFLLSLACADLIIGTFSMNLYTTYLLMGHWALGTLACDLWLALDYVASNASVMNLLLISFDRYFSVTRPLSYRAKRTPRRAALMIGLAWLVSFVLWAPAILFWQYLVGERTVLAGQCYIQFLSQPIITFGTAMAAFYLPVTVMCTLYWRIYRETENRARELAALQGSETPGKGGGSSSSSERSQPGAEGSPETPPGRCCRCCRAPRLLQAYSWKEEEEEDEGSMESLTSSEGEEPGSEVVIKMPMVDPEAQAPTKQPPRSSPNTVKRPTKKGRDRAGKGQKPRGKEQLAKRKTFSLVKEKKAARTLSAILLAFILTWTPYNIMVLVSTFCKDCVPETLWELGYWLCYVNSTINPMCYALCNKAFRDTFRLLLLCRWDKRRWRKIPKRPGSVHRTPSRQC

human washed platelets = experiment: sAPPα and sAPPβ released from activated human washed platelets, LC/ESI/MS/MS; assay type: cell-based; details: 300 μl platelets at 600,000 cells/μl activated with 500 nM
Protocol: FIG. 10: Detection of the two sAPP isoforms released from human platelets. 300 μl of human washed platelets at 600,000 cells/μl were activated with 500 nM U46,619. sAPPs released in the medium were immunoprecipitated and digested with trypsin. The peptides were analyzed as described above. The product ions y6 and y4 were monitored for TEEISEVK and MDAEFR, respectively. Chromatograms of the two product ions are shown for each sAPP isoform.
Internal standards for each peptide were obtained by incorporation of a [^13C] labeled amino acid. Human washed platelets (600,000 cells/Ml, 300 μl) were activated with 500 nM of U46,619 and the release of sAPPs was analyzed after centrifuging the cells at 2,000×g for 15 min. After immunoprecipitation of the sAPPs and digestion with trypsin, 150 pg of MDAE[^13C]-FR and TEE[^13C]-ISEVK were added as internal standards and the samples were analyzed by LC/ESI/MS/MS using the LCQ Deca XP ion trap mass spectrometer (Thermo Scientific, Waltham, Mass.).

[2] = 3xTg-AD mice (Caccamo et al., 2006)

## CC[C@@H]1SC2(CCN(C)CC2)NC1=O [AF267B]
3xTg-AD mice; [2]
  APP processing via the β-secretase pathway: decreases APP processing via the β-secretase pathway
  development of amyloid pathology: decreases development of amyloid pathology
3xTg-AD mice; Caccamo et al., 2006
  expression of ADAM 17/TACE: increases expression of ADAM 17/TACE

## CCCCC[C@H](O)/C=C/[C@@H]1[C@H]2C/C(=C/CCCC(=O)O)C[C@H]2C[C@H]1O [carbaprostacyclin]
Human platelets; pre-incubated 30 min with increasing concentrations prior to 500 nM U46,619, 1 h
  effect on sAPPα release triggered by U46,619: antagonized in a dose-dependent manner the effect of U46,619

## CCCCC/C=C\C/C=C\C/C=C\C/C=C\CCCC(=O)O [arachidonic acid]
Human platelets; human platelets
  concentration giving maximal effect on sAPPα release: 7.5 µM

## collagen
Human platelets
  sAPPα release by washed platelets: failed to trigger release of sAPPα

## CC1OC2(CS1)CN1CCC2CC1 (centres unmarked) [AF102B]
[1]
  levels of amyloid in cerebrospinal fluid: decrease the levels of amyloid in cerebrospinal fluid

## O=C(O)CCC/C=C\C[C@@H]1[C@H](CNNC(=O)Nc2ccccc2)[C@H]2CC[C@@H]1O2 [SQ29,548]
Human platelets; pre-incubated 15 min with increasing concentrations prior to 7.5 μM arachidonic acid
  effect on sAPPα release triggered by arachidonic acid: antagonized

## Nc1ncnc2c1ncn2[C@@H]1O[C@H](COP(=O)(O)OP(=O)(O)O)[C@@H](O)[C@H]1O [ADP]
Human platelets
  sAPPα release by washed platelets: had no effect on sAPPα release

## CCCCC[C@H](O)/C=C/[C@@H]1[C@@H](C/C=C\CCCC(=O)O)[C@H]2CO[C@@H]1C2 [U46,619]
Human platelets; human platelets 600,000 cells/μl, 1 h incubation, U46,619 500 nM, PAR1-AP 100 μM, PAR4-AP 200 μM
  sAPPα release in response to agonist: gave the same response as 20 μM of arachidonic acid
Human platelets; human platelets, increasing concentrations
  concentration giving maximal response of sAPPα release: 500 nM
Human washed platelets
  amount of sAPPα released: 45 pg
  amount of sAPPβ released: 41 pg

## CCCCC[C@H](O)/C=C/[C@H]1[C@H](O)CC(=O)[C@@H]1C/C=C\CCCC(=O)O [PGE2]
Human platelets; concentrations higher than 10 nM, with 0.5 μM arachidonic acid
  potentiation of sAPPα release by sub-efficacious arachidonic acid: this potentiation effect was reversed
Human platelets; highest concentration used, without arachidonic acid
  sAPPα release, compound by itself: had no effect on sAPPα release
Human platelets; low nanomolar concentrations, pre-incubated 2 min prior to 0.5 μM arachidonic acid, 1 h
  potentiation of sAPPα release by sub-efficacious arachidonic acid: potentiates sAPPα release
Human platelets; washed platelets, 0.5 μM arachidonic acid, 1 h
  concentration giving maximum sAPPα release with 0.5 μM arachidonic acid: 7.5 nM
